Experiments:
[1] = Inhibition of trypsin like proteolytic activity of rabbit 26S proteasome; parameters: species or system Oryctolagus cuniculus
[2] = Inhibition of PGPH activity of rabbit 26S proteasome; parameters: species or system Oryctolagus cuniculus
[3] = Inhibition of chymotrypsin like proteolytic activity of rabbit 26S proteasome; parameters: species or system Oryctolagus cuniculus
[4] = Inhibition of 26S proteasome-mediated chymotrypsin like proteolytic activity in human MCF7 cells; format: cell-based
[5] = Inhibition of calpain
[6] = Dissociation constant, pKa of the compound; format: physicochemical

Compound | IC50 [1] [µM] | IC50 [2] [µM] | IC50 [3] [µM] | IC50 [4] [µM] | IC50 [5] [µM] | pKa [6]
CC(C)C[C@H](NC(=O)[C@H](Cc1ccccc1)NC(=O)c1cnccn1)B(O)O [BORTEZOMIB] | 7 | 0.48 |  |  |  | 
COc1ccccc1NS(=O)(=O)c1ccc(NC2=C(Cl)C(=O)c3ccccc3C2=O)cc1 | 24.7 | 49.2 | 20.8 |  |  | 
Cc1cccc(NS(=O)(=O)c2ccc(NC3=C(Cl)C(=O)c4ccccc4C3=O)cc2)c1 | 55 | > 100 | 20.8 |  |  | 
O=C1C(Cl)=C(Nc2ccc(S(=O)(=O)Nc3ccccn3)cc2)C(=O)c2ccccc21 | 4.5 | 4.5 | 1 | 6 | > 30 | 
COc1ccc(NS(=O)(=O)c2ccc(NC3=C(Cl)C(=O)c4ccccc4C3=O)cc2OC)cc1 | 23.3 | 35 | 15.3 |  |  | 
Cc1nnc(NS(=O)(=O)c2ccc(NC3=C(Cl)C(=O)c4ccccc4C3=O)cc2)s1 | 10.7 | 13.4 | 6.4 |  |  | < 7.91
Cc1cc(C)nc(NS(=O)(=O)c2ccc(NC3=C(Cl)C(=O)c4ccccc4C3=O)cc2)n1 | 20.9 | 50.2 | 19 |  |  | < 7.91
Cc1noc(NS(=O)(=O)c2ccc(NC3=C(Cl)C(=O)c4ccccc4C3=O)cc2)c1C | 9.25 | 21.2 | 3.9 |  |  | < 7.91
O=C1C(Cl)=C(Nc2ccc(S(=O)(=O)Nc3ccnn3-c3ccccc3)cc2)C(=O)c2ccccc21 | 20.7 | 25.6 | 16.3 |  |  | < 7.91
O=C1C(Cl)=C(Nc2ccc(S(=O)(=O)Nc3nccs3)cc2)C(=O)c2ccccc21 | 8.15 | 14.3 | 3.3 |  |  | < 7.91
COc1cccc(NS(=O)(=O)c2ccc(NC3=C(Cl)C(=O)c4ccccc4C3=O)cc2)c1 | 24.6 | 43.5 | 17 |  |  | 
Cc1cc(NS(=O)(=O)c2ccc(NC3=C(Cl)C(=O)c4ccccc4C3=O)cc2)no1 | 13.2 | 16.7 | 11.2 |  |  | < 7.91
COc1cc(NC2=C(Cl)C(=O)c3ccccc3C2=O)ccc1S(=O)(=O)Nc1ccccc1C | 24.3 | 30 | 13.7 |  |  | 
